From ChEMBL document CHEMBL3885881, “DrugMatrix”

Organism: Rattus norvegicus
Test: DrugMatrix - Regimen: Daily Repeat
Format: toxicity, organism-based, Sprague-Dawley
Parameters: regimen Daily Repeat, gender Male, age 6-8 weeks
Conditions: in vivo, po, 0 mg/kg, route oral GAVAGE, dose level Control, […]; for ABSOLUTE BASOPHIL / ABSOLUTE EOSINOPHIL / ABSOLUTE LYMPHOCYTE / ABSOLUTE MONOCYTE / ABSOLUTE SEGMENTED NEUTROPHIL / BASOPHIL / EOSINOPHIL / ERYTHROCYTE COUNT / HEMATOCRIT / HEMOGLOBIN / LEUKOCYTE COUNT / LYMPHOCYTE / MEAN CORPUSCULAR HEMOGLOBIN / MEAN CORPUSCULAR HEMOGLOBIN CONCENTRATION / MONOCYTE / NEUTROPHIL / NUCLEATED RED BLOOD CELLS / PLATELET COUNT: tissue Blood
[1] = 72 h, tissue Plasma, time 3 day
[2] = 120 h, tissue Plasma, time 5 day

**Q.** What does the source list for `CC(C)Cc1ccc(C(C)C(=O)O)cc1` (stereo not drawn) [IBUPROFEN]?
**A.** ABSOLUTE BASOPHIL (72 h, time 3 day): 0 CELLS/uL; ABSOLUTE EOSINOPHIL (72 h, time 3 day): 0 CELLS/uL; ABSOLUTE LYMPHOCYTE (72 h, time 3 day): 7601 CELLS/uL; ABSOLUTE MONOCYTE (72 h, time 3 day): 354.33 CELLS/uL; ABSOLUTE SEGMENTED NEUTROPHIL (72 h, time 3 day): 744.67 CELLS/uL; BASOPHIL (72 h, time 3 day): 0%; EOSINOPHIL (72 h, time 3 day): 0%; ERYTHROCYTE COUNT (72 h, time 3 day): 5.03 x10E6/uL; HEMATOCRIT (72 h, time 3 day): 33.7%; HEMOGLOBIN (72 h, time 3 day): 13.43 G/DL; LEUKOCYTE COUNT (72 h, time 3 day): 8.7 x10E3/uL; LYMPHOCYTE (72 h, time 3 day): 86.33%; MEAN CORPUSCULAR HEMOGLOBIN (72 h, time 3 day): 26.7 pg; MEAN CORPUSCULAR HEMOGLOBIN CONCENTRATION (72 h, time 3 day): 39.83 G/DL; MONOCYTE (72 h, time 3 day): 4.67%; NEUTROPHIL (72 h, time 3 day): 9%; NUCLEATED RED BLOOD CELLS (72 h, time 3 day): 0 /100WBC; PLATELET COUNT (72 h, time 3 day): 1151 x10E3/uL; ALANINE AMINOTRANSFERASE [1]: 97.67 u/L; ALBUMIN [1]: 4.07 G/DL; ALKALINE PHOSPHATASE [1]: 607.67 u/L; ASPARTATE AMINOTRANSFERASE [1]: 101 u/L; BLOOD UREA NITROGEN [1]: 13.33 mg/dL; CARBON DIOXIDE [1]: 36 mmol/L; CHLORIDE [1]: 99.67 MEQ/L; CHOLESTEROL [1]: 75.67 mg/dL; CREATINE PHOSPHOKINASE [1]: 279.67 u/L; CREATININE [1]: 0.16 mg/dL; GLUCOSE [1]: 164 mg/dL; LACTATE DEHYDROGENASE [1]: 115 u/L; LIPASE [1]: 12.67 u/L; PHOSPHORUS [1]: 8.77 mg/dL; POTASSIUM [1]: 5.79 MEQ/L; SODIUM [1]: 142.83 MEQ/L; TOTAL BILIRUBIN [1]: 0.27 mg/dL; TOTAL PROTEIN [1]: 5.8 G/DL; URIC ACID [1]: 0.67 mg/dL; ABSOLUTE BASOPHIL (120 h, time 5 day): 0 CELLS/uL; ABSOLUTE EOSINOPHIL (120 h, time 5 day): 0 CELLS/uL; ABSOLUTE LYMPHOCYTE (120 h, time 5 day): 4426.33 CELLS/uL; ABSOLUTE MONOCYTE (120 h, time 5 day): 102.67 CELLS/uL; ABSOLUTE SEGMENTED NEUTROPHIL (120 h, time 5 day): 337.67 CELLS/uL; BASOPHIL (120 h, time 5 day): 0%; EOSINOPHIL (120 h, time 5 day): 0%; ERYTHROCYTE COUNT (120 h, time 5 day): 5.31 x10E6/uL; HEMATOCRIT (120 h, time 5 day): 32.5%; HEMOGLOBIN (120 h, time 5 day): 13.17 G/DL; LEUKOCYTE COUNT (120 h, time 5 day): 4.87 x10E3/uL; LYMPHOCYTE (120 h, time 5 day): 90.33%; MEAN CORPUSCULAR HEMOGLOBIN (120 h, time 5 day): 24.93 pg; MEAN CORPUSCULAR HEMOGLOBIN CONCENTRATION (120 h, time 5 day): 40.67 G/DL; MONOCYTE (120 h, time 5 day): 2.33%; NEUTROPHIL (120 h, time 5 day): 7.33%; NUCLEATED RED BLOOD CELLS (120 h, time 5 day): 0.33 /100WBC; PLATELET COUNT (120 h, time 5 day): 848.33 x10E3/uL; ALANINE AMINOTRANSFERASE [2]: 59.67 u/L; ALBUMIN [2]: 3.87 G/DL; ALKALINE PHOSPHATASE [2]: 452 u/L; ASPARTATE AMINOTRANSFERASE [2]: 81.33 u/L; BLOOD UREA NITROGEN [2]: 13.67 mg/dL; CARBON DIOXIDE [2]: 26.33 mmol/L; CHLORIDE [2]: 103.67 MEQ/L; CHOLESTEROL [2]: 65.67 mg/dL; CREATINE PHOSPHOKINASE [2]: 355.33 u/L; CREATININE [2]: 0.14 mg/dL; GLUCOSE [2]: 171.33 mg/dL; LACTATE DEHYDROGENASE [2]: 118 u/L; LIPASE [2]: 11.33 u/L; PHOSPHORUS [2]: 11.13 mg/dL; POTASSIUM [2]: 5.18 MEQ/L; SODIUM [2]: 143.17 MEQ/L; TOTAL BILIRUBIN [2]: 0.2 mg/dL; TOTAL PROTEIN [2]: 5.87 G/DL
